Assay results taken from patent publication US6579848B1, “Depigmenting activity of agouti signal protein and peptides thereof” (The United States of America as represented by the …, priority 1995, dated 2003).

Columns and labels:
[1] = test system: tyrosinase; assay: DOPA oxidase enzyme assay on extracts of treated melan-a cells; assay type: cell-based, murine; settings: extracts of melan-a cells cultured 5 days; 10 nM
Protocol: (§1) Assays for melanogenic catalytic activities as described below were carried out at pH 6.8, 37° C. for 60 minutes. (1) Tyrosine hydroxylase activity was measured using the [^3H]tyrosine assay (Hearing and Ekel, 1976; Hearing, 1987). This method specifically measures the tritiated water produced during the hydroxylation of tyrosine to DOPA. (2) DOPA oxidase activity was measured using incorporation of [3-^14C]DOPA into acid-insoluble melanin as detailed previously (Aroca et al., 1993). (3) DOPAchrome tautomerase activity was measured by HPLC as the disappearance of DOPAchrome substrate and the production of DHICA rather than DHI; data are converted to pmol products by comparison with known standards. The HPLC assay was detailed previously (Palumbo et al., 1987; Tsukamoto et al., 1992). (4) DHI oxidase and DHICA oxidase activities were measured by HPLC as the disappearance of these substrates from reaction mixtures compared to controls for spontaneous auto-oxidation; data are converted to pmol by comparison with known standard (Aroca et al., 1993). (5) Melanin production was measured using incorporation of [^14C]tyrosine into acid-insoluble melanin, also as detailed previously (Hearing and Ekel, 1976; Hearing, 1987); pmol melanin produced are calculated from the radioactive product. […]

[2] = test system: tyrosinase; assay: Tyrosine hydroxylase enzyme assay on extracts of treated melan-a cells; assay type: cell-based, murine; settings: extracts of melan-a cells cultured 5 days; 10 nM
Protocol: as §1

Molecule | DOPA oxidase [1] [pmol/μg protein/hr] | tyrosine hydroxylase [2] [pmol/μg protein/hr]
α-melanocyte stimulating hormone [MSH, reference compound] | 197.5 ± 17.4 | 8.7 ± 2.8
agouti protein: Recombinant murine agouti signal protein purified from a baculovirus expression system (protein) MDVTRLLLATLVSFLCFFTVHSHLALEETLGDDRSLRSDSSMNSLDFSSVSIVALNKKSKKISRKEAEKRKRSSKKKASMKKVARPPPPSPCVATRDSCKPPAPACCDPCASCQCRFFGSACTCRVLNPNC | −2.6 ± 3.4 | −1.2 ± 0.2
